# Measurements: patent US20260139007A1, “EPHA4 ANTAGONISTS AND USES THEREOF” (SANFORD BURNHAM PREBYS MEDICAL DISCOVERY INSTITUTE, priority 2023, published 2026)
# Numbered stars: 1 amine (or outer) side, 2 acyl side, 3 side chain; on linkers, the order of the positions; unused ones are H or OH. Bridge positions count the residues as written; N and C are the ends. Square brackets hold non-standard residues; d marks the D form. Side chains are listed from the residue outwards. Peptide text beside a SMILES is read from it. * marks the point of attachment. γGlu = O=C(O)[C@H](CCC(=O)[*:2])N[*:1]; βAsp = O=C(O)[C@H](CC(=O)[*:2])N[*:1]; Lauroyl = CCCCCCCCCCCC(=O)*; Octanoyl = CCCCCCCC(=O)*; βAla = NCCC(=O)O
# Columns and labels:
# [1] = biological target: EphA4 Fc; assay: ELISA measuring inhibition of ephrin-A5 AP binding to immobilized EphA4 Fc; parameters: species or system human or mouse; details: for IC50: inhibition of ephrin-A5 AP binding to EphA4 Fc, averages of all experiments, read-out: IC50 ± SE (n) by ELISA
# [2] = tested on: EphA4 Fc; assay: ELISA inhibition of ephrin-A5 AP binding to EphA4 Fc in the presence of HSA, BSA or methyl-β-cyclodextrin; details: for effect of HSA on potency: presence vs absence of 40 mg/mL HSA, tested in parallel; for IC50: read-out: IC50 ± SE (n) by ELISA with HSA or BSA, 40 mg/mL delipidated HSA
# Description: To determine whether albumin binding to the lipidated compounds affects their ability to bind EphA4, the effects of delipidated human serum albumin (HSA) on the inhibitory potency of some of the compounds were examined.
# [3] = In vivo half-life: active compound remaining in mouse blood, deduced from apparent IC50 of plasma in the EphA4-ephrinA5 ELISA; details: mouse, in vivo, ip, mouse, IP (intraperitoneal administration); read-out: In vivo half-life (converted)
# Protocol: To examine the persistence of compounds in the blood circulation, an approach was devised to determine the concentration of compound in mouse blood by taking advantage of the ELISA measuring inhibition of EphA4-ephrinA5 interaction.
# Lipidated compounds dissolved in DMSO were diluted in […] PBS (to a 5% final DMSO concentration) or in […] PBS supplemented with 20 or 40 mg/mL BSA or 6.5 mM methyl-β-cyclodextrin for intravenous or intraperitoneal injection. Neutral pH of the compound solution was verified before injection. PEGylated compounds were dissolved in […] PBS before intraperitoneal injection. Peptides were sterile filtered before administration. Blood from each mouse was collected at 3 different time points after compound injection, the first 2 times by retro-orbital bleeding and the third time by terminal cardiac bleeding under deep anesthesia. Red blood cells were removed by centrifugation from blood treated with heparin and the resulting plasma was frozen in aliquots.
# For each time point, a dose-response curves by measuring inhibition of EphA4-ephrinA5 binding at different plasma dilutions was obtained.
SMILES,IC50 [1] [nM],IC50 [2] [nM],also measured
CC(C)[C@@H]1NC(=O)[C@@H](NC(=O)[C@H](Cc2ccc(O)cc2)NC(=O)[C@@H]2CCCN2C(=O)[C@H](C)N)CSSC[C@@H](C(=O)NCC(=O)NCC(=O)N[C@@H](CCCCN)C(=O)NCC(N)=O)NC(=O)[C@H](CO)NC(=O)[C@H](Cc2c[nH]c3ccccc23)NC(=O)[C@H](CO)NC(=O)CCNC(=O)[C@H](CCCNC(=N)N)NC(=O)[C@H](Cc2ccc(O)cc2)NC1=O [Compound 2],–,–,potency compared with APY-d2 ([1]; tested in parallel in the same ELISA): not significantly different from that for APY-d2; effect of HSA on potency [2]: only a very small effect
"CCCCCCCC(=O)NCCCC[C@@H]1NC(=O)[C@H](Cc2ccc(O)cc2)NC(=O)[C@H](C(C)C)NC(=O)[C@@H](NC(=O)[C@H](Cc2ccc(O)cc2)NC(=O)[C@@H]2CCCN2C(=O)CCN)CSSC[C@@H](C(N)=O)NC(=O)[C@H](CO)NC(=O)[C@H](Cc2c[nH]c3ccccc23)NC(=O)[C@H](CO)NC(=O)CCNC1=O [Compound 4, βAPYCVYK(octanoyl)βASWSC-NH2] (H-[βAla]PYCVYK(Octanoyl)[βAla]SWSC-NH2; disulfide 4-12)",–,100 ± 30,–
"CCCCCCCCCCCC(=O)NCCCC[C@@H]1NC(=O)[C@H](Cc2ccc(O)cc2)NC(=O)[C@H](C(C)C)NC(=O)[C@@H](NC(=O)[C@H](Cc2ccc(O)cc2)NC(=O)[C@@H]2CCCN2C(=O)CCN)CSSC[C@@H](C(N)=O)NC(=O)[C@H](CO)NC(=O)[C@H](Cc2c[nH]c3ccccc23)NC(=O)[C@H](CO)NC(=O)CCNC1=O [Compound 8, βAPYCVYK(lauroyl)βASWSC-NH2] (H-[βAla]PYCVYK(Lauroyl)[βAla]SWSC-NH2; disulfide 4-12)",390 ± 80,–,–
"CCCCCCCCCCCC(=O)N[C@@H](CC(=O)NCCCC[C@@H]1NC(=O)[C@H](Cc2ccc(O)cc2)NC(=O)[C@H](C(C)C)NC(=O)[C@@H](NC(=O)[C@H](Cc2ccc(O)cc2)NC(=O)[C@@H]2CCCN2C(=O)CCN)CSSC[C@@H](C(N)=O)NC(=O)[C@H](CO)NC(=O)[C@H](Cc2c[nH]c3ccccc23)NC(=O)[C@H](CO)NC(=O)CCNC1=O)C(=O)O [Compound 10, βAPYCVYK(lauroyl-βD)βASWSC-NH2] (H-[βAla]PYCVYK([βAsp-Lauroyl])[βAla]SWSC-NH2; disulfide 4-12)",110 ± 10,–,–

# More lines, main results first:
IC50 [1] [nM],IC50 [2] [nM],SMILES,also measured
67 ± 10,55 ± 13,"CC(C)[C@@H]1NC(=O)[C@@H](NC(=O)[C@H](Cc2ccc(O)cc2)NC(=O)[C@@H]2CCCN2C(=O)[C@H](C)N)CSSC[C@@H](C(N)=O)NC(=O)[C@H](CO)NC(=O)[C@H](Cc2c[nH]c3ccccc23)NC(=O)[C@H](CO)NC(=O)CCNC(=O)[C@H](CCCCN)NC(=O)[C@H](Cc2ccc(O)cc2)NC1=O [Compound 1, APYCVYKβASWSC-NH2] (H-APYCVYK[βAla]SWSC-NH2; disulfide 4-12)",effect of HSA on potency [2]: only a very small effect
34 ± 6,110 ± 30,CCCCCCCC(=O)NCCCC[C@H](NC(=O)CNC(=O)CNC(=O)[C@@H]1CSSC[C@H](NC(=O)[C@H](Cc2ccc(O)cc2)NC(=O)[C@@H]2CCCN2C(=O)CCN)C(=O)N[C@@H](C(C)C)C(=O)N[C@@H](Cc2ccc(O)cc2)C(=O)N[C@@H](CCCNC(=N)N)C(=O)NCCC(=O)N[C@@H](CO)C(=O)N[C@@H](Cc2c[nH]c3ccccc23)C(=O)N[C@@H](CO)C(=O)N1)C(=O)NCC(N)=O [Compound 7],–
84 ± 13,–,"CCCCCCCCCCCC(=O)N[C@@H](CCC(=O)NCCCC[C@@H]1NC(=O)[C@H](Cc2ccc(O)cc2)NC(=O)[C@H](C(C)C)NC(=O)[C@@H](NC(=O)[C@H](Cc2ccc(O)cc2)NC(=O)[C@@H]2CCCN2C(=O)CCN)CSSC[C@@H](C(N)=O)NC(=O)[C@H](CO)NC(=O)[C@H](Cc2c[nH]c3ccccc23)NC(=O)[C@H](CO)NC(=O)CCNC1=O)C(=O)O [Compound 11, βAPYCVYK(lauroyl-γE)βASWSC-NH2] (H-[βAla]PYCVYK([γGlu-Lauroyl])[βAla]SWSC-NH2; disulfide 4-12)",half-life [3]: 30 to 60 min
